Measured values reported in publication PMC5923123, “In Vitro and In Vivo Efficacy of a Novel and Long-Acting Fungicidal Azole, PC1244, on Aspergillus fumigatus Infection” (Antimicrobial Agents and Chemotherapy, 2018).
In brackets after ≈: the same amount, converted by molar mass. Several values for one entry are separate records, joined by “and”; a condition that tells them apart may be missing. Equal entries are not always repeated. Where two headings read alike, the source gives them in different places.

Tests used:
[1] = test system: Cryptococcus neoformans (ATCC 24067); experiment: CLSI MIC; format: cell-based; conditions: ATCC24067, CLSI, 1 strain, read-out: MIC
[2] = test system: 96 clinically isolated A. fumigatus strains; experiment: EUCAST MIC against clinical isolates (visual); format: cell-based, Aspergillus fumigatus; conditions: 96 clinical isolates; for MIC Range / MIC50 / MIC90 / MIC: visual; for MIC50 / MIC90 / MIC: Aspergillus fumigatus
Description: The antifungal activity of PC1244 was further evaluated against 96 clinical isolates (obtained from Saint Louis Hospital, Paris, France [50 isolates], and the North West England Mycology Reference Centre, Manchester, UK [46 isolates]). […] .

A. fumigatus AF293 = experiment: EUCAST broth microdilution growth inhibition (OD 530 nm, 384-well); format: cell-based; conditions: Aspergillus fumigatus, strain AF293 (ITC-susceptible), 48 h
Description: (§1) The antifungal activities of the test compounds against A. fumigatus strains (itraconazole [ITC]-susceptible strains NCPF2010, AF294, and AF293; ITC-resistant strains AF72 and AF91) were calculated from growth curves generated by spectrophotometric analysis and compared to the activities against positive and negative controls.

A. fumigatus AF72 = experiment: as above; format: cell-based; conditions: Aspergillus fumigatus, strain AF72 (ITC-resistant), 48 h
Description: as §1

A. fumigatus NCPF2010 = experiment: as above; format: cell-based; conditions: Aspergillus fumigatus, strain NCPF2010 (ITC-susceptible), 48 h, range tested 0.002 to 1 μg/ml
Description: as §1

A. fumigatus AF294 = experiment: as above; format: cell-based; conditions: Aspergillus fumigatus, strain AF294 (ITC-susceptible), 48 h
Description: as §1

A. fumigatus AF91 = experiment: as above; format: cell-based; conditions: Aspergillus fumigatus, strain AF91 (ITC-resistant), 48 h
Description: as §1

[3] = test system: Trichophyton rubrum (ATCC 10218); experiment: CLSI MIC; format: cell-based; conditions: ATCC10218, 1 strain
[4] = test system: Aspergillus flavus (AFL8, NRRC3357); experiment: EUCAST MIC; format: cell-based; conditions: EUCAST, 2 strains, mean MIC, read-out: MIC
[5] = test system: ergosterol production in A. fumigatus (NCPF2010); experiment: A. fumigatus cell-based ergosterol assay; conditions: for IC50: Aspergillus fumigatus
Description: CYP51 enzyme-inhibitory activity was also measured in a cell-based assay, as described previously ([28]). In this plate-based ergosterol quantification experiment, oxidation of ergosterol by cholesterol oxidase was determined by observing the conversion of the weakly fluorescent resazurin to the highly fluorescent resorufin and was normalized using crystal violet staining (indicating cell number).
After incubation for 24 h at 35°C, the medium was removed from all wells and replaced with reaction buffer (catalog number A12216; Amplex red cholesterol assay kit; Thermo Fisher) and Amplex red solution. The plates were incubated for 30 min at 37°C with protection from light, after which the fluorescence was quantified using a spectrophotometer. The medium was removed from all wells and replaced with crystal violet solution (1%, vol/vol), and the plates were incubated at room temperature on a shaker for 30 min. The plates were washed three times with phosphate-buffered saline (PBS), and sodium dodecyl sulfate solution (0.1%, vol/vol) was added across the plate to lyse the cells. After incubation at room temperature for 1 h, the absorbance (OD) at 590 nm was measured using a spectrophotometer.

[6] = test system: Aspergillus terreus (AT49, AT7130); experiment: EUCAST MIC; format: cell-based; conditions: EUCAST, 2 strains, mean MIC, read-out: MIC
[7] = test system: Cladosporium argillaceum (ATCC 38013); experiment: CLSI MIC; format: cell-based; conditions: Rhizocladosporium argillaceum, ATCC38013, 1 strain
[8] = test system: Penicillium citrinum (ATCC 9849); experiment: CLSI MIC; format: cell-based; conditions: ATCC9849, 1 strain
[9] = test system: Aureobasidium pullulans (ATCC 348); experiment: CLSI MIC; format: cell-based; conditions: ATCC348, 1 strain
A. fumigatus (NCPF2010) [10] = experiment: Fungicidal activity by subculture on agar (CFU-MFC); conditions: for MFC: Aspergillus fumigatus, NCPF2010, 48 h, read-out: CFU-MFC; for CFU-MFC/MIC ratio: NCPF2010
Description: After the MIC for each compound was recorded, fungicidal activity was determined as previously described ([35]). Briefly, medium from each well (100 μl/well) was removed after pipetting up and down five times and subcultured onto 4% Sabouraud dextrose agar plates. The plates were incubated (35°C with ambient air) for 48 h, and the numbers of CFU were counted for each compound concentration. The minimum fungicidal concentration (MFC) was determined as the lowest compound concentration yielding 3 colonies or less.

[11] = test system: Aspergillus flavus (ATCC 204304); experiment: CLSI MIC; format: cell-based; conditions: ATCC204304, CLSI, 1 strain, read-out: MIC
[12] = test system: BEAS2B cells infected with A. fumigatus; experiment: Persistence of action in bronchial epithelial cells (galactomannan in supernatant); format: cell-based, Aspergillus fumigatus; conditions: Aspergillus fumigatus, BEAS-2B, GM readout
Description: In a second system, the persistence of the action of the same three agents on A. fumigatus-infected bronchial epithelial cells was quantified using galactomannan (GM) production in the culture supernatant as an index of fungal growth. BEAS2B cells were infected with A. fumigatus, and the effects of a 24-h washout period (medium change) prior to infection were examined.
The persistence of action of the test agents was evaluated in immortalized bronchial epithelial cells (BEAS2B cells) as previously reported ([28]). […] The plate was incubated for exactly 1 h at 37°C in 5% CO2. After the incubation time had elapsed, all wells on the washout plate were aspirated and growth medium (100 μl/well) was added across the plate. […] The plate was incubated for exactly 1 h at 37°C in 5% CO2, after which A. fumigatus conidia were added across both plates at a final concentration of 1 × 10^3/well. […] This study was conducted in triplicate in three independent experiments.

[13] = test system: A. fumigatus hyphae (NCPF2010); experiment: Persistence of action on A. fumigatus hyphae (resazurin microtiter assay); format: cell-based, Aspergillus fumigatus; conditions: for IC50: Aspergillus fumigatus, NCPF2010
Description: The duration of action of test agents within the hyphae of A. fumigatus has been determined using a resazurin-based microtiter assay ([28]).
The persistence of action of the test agents against A. fumigatus hyphae (NCPF2010) was determined as previously reported ([28]). […] The plates were incubated for exactly 20 min at 35°C in 5% CO2. After the incubation time had elapsed, all wells on the designated washout plate were aspirated and growth medium (100 μl/well) was added across the plate. […] Resazurin (0.04% diluted in growth medium) was added to all wells of both the nonwashout and washout plates (5 μl/well) to give a final concentration of 0.002% resazurin. The plates were incubated at 35°C in 5% CO2 for 16 h. Subsequently, the fluorescence in each well was measured at an excitation λ of 545 nm and an emission λ of 600 nm using a multiscanner (Clariostar; BMG, Buckinghamshire, UK). […] This study was conducted in quadruplicate in three independent experiments.

[14] = test system: Rhizopus oryzae(ATCC 11145); experiment: CLSI MIC; format: cell-based; conditions: Rhizopus arrhizus, ATCC11145, 1 strain
[15] = test system: Gibberella zeae(Fusarium graminearum) (ATCC 16106); experiment: microbe, parasite or virus in culture; format: cell-based; conditions: ATCC16106
[16] = test system: Rhizomucor pusillus (ATCC 16458); experiment: CLSI MIC; format: cell-based; conditions: ATCC16458, 1 strain
A. fumigatus (NCPF2010) [17] = experiment: Fungicidal activity by XTT colorimetric method (XTT-MFC); conditions: for MFC: NCPF2010, read-out: XTT-MFC; for XTT-MFC/MIC ratio / XTT-MFC: NCPF2010; for XTT-MFC: cutoff 99% inhibition
Description: In addition, the fungicidal effect of each compound was determined using 2,3-bis-(2-methoxy-4-nitro-5-sulfophenyl)-2H-tetrazolium-5-carboxanilide salt (XTT)-based quantitative colorimetric analysis (XTT-MFC).
After the removal of medium for culture-based testing of the number of CFU, the contents of all wells were carefully aspirated and warm PBS (200 μl/well) was added. After gentle agitation, the contents of all wells were aspirated and fresh medium was added (200 μl/well). The plates were incubated (35°C with ambient air) for 24 h. […] The plates were incubated (35°C with ambient air) for 2 h, after which the plates were agitated gently for 2 min. The optical density (OD) of each well at 450 nm and 620 nm was measured using a multiscanner (Clariostar; BMG, Buckinghamshire, UK).

[18] = NCPF2010, 24 h, read-out: IC50, inhibition of ergosterol production
[19] = 1 h contact before infection, no washout, read-out: BEAS2B cells IC50 No washout
[20] = 1 h contact then 24-h washout before infection, read-out: BEAS2B cells IC50 Washout
[21] = 20 min contact, washout, 16 h incubation, read-out: Hyphae IC50 Washout
[22] = continuous contact 16 h, read-out: Hyphae IC50 No washout
[23] = Aspergillus fumigatus, NCPF2010, read-out: maximum inhibition of fungicidal activity

## Cc1cc(N2CCN(c3ccc(C(=O)N[C@H]4CCCC[C@@H]4O)cc3)CC2)ccc1OC[C@@H]1CO[C@@](Cn2cncn2)(c2ccc(F)cc2F)C1 [PC1244, 4-(4-(4-(((3R,5R)-5-((1H-1,2,4-triazol-1-yl)methyl)-5-(2,4-difluorophenyl)tetrahydrofuran-3-yl)methoxy)-3-methylphenyl)piperazin-1-yl)-N-((1S,2S)-2-hydroxycyclohexyl)benzamide]
[1]
  MIC: 0.016 µg/mL (≈ 0.0233 µM)
[2]
  fold more potent than VRC on the basis of geometric mean MICs: 6.2 fold
  MIC Range: 0.008 to 2 µg/mL
  MIC50: 0.032 µg/mL (≈ 0.0466 µM)
  MIC90: 0.5 µg/mL (≈ 0.728 µM)
[2]; read-out: MIC Geometric mean
  MIC: 0.067 µg/mL (≈ 0.0976 µM)
[2]; read-out: MIC Mode
  MIC: 0.016 µg/mL (≈ 0.0233 µM)
A. fumigatus AF293
  IC50: 0.0026 µg/mL (≈ 0.00379 µM)
  IC90: 0.012 µg/mL (≈ 0.0175 µM)
A. fumigatus AF72
  IC50: 0.0024 µg/mL (≈ 0.00349 µM)
  IC90: 0.026 µg/mL (≈ 0.0379 µM)
A. fumigatus NCPF2010
  IC50: 0.0017 µg/mL (≈ 0.00248 µM)
  IC90: 0.0022 µg/mL (≈ 0.0032 µM)
A. fumigatus AF294
  IC50: 0.0021 µg/mL (≈ 0.00306 µM)
  IC90: 0.0041 µg/mL (≈ 0.00597 µM)
A. fumigatus AF91
  IC50: 0.0037 µg/mL (≈ 0.00539 µM)
  IC90: 0.024 µg/mL (≈ 0.0349 µM)
[3]
  MIC: 0.031 µg/mL (≈ 0.0451 µM)
[4]
  MIC: 0.38 µg/mL (≈ 0.553 µM)
[5]
  fold more potent than POS at inhibiting ergosterol production: 2.2 fold
  fold more potent than VRC at inhibiting ergosterol production: 12 fold
[5]; [18]
  IC50: 0.0055 µg/mL
[5]; NCPF2010, read-out: 50% inhibitory concentration, ergosterol synthesis
  IC50: 8 nM
[6]
  MIC: 0.38 µg/mL (≈ 0.553 µM)
[7]
  MIC: 0.25 µg/mL (≈ 0.364 µM)
[8]
  MIC: 0.5 µg/mL (≈ 0.728 µM)
[9]
  MIC: 1 µg/mL (≈ 1.46 µM)
A. fumigatus (NCPF2010) [10]
  fold stronger than POS (CFU-MFC): 2 fold
  fold stronger than VRC (CFU-MFC): 8 fold
  MFC: 2 µg/mL (≈ 2.91 µM)
  CFU-MFC/MIC ratio: 32
[11]
  MIC: 0.25 µg/mL (≈ 0.364 µM)
[12]; [19]
  IC50: 0.0034 µg/mL (≈ 0.00495 µM)
[12]; [20]
  IC50: 0.018 µg/mL (≈ 0.0262 µM)
[13]
  Hyphae Fold change (washout vs no washout): 2.4 fold and 2.41 fold
[13]; [21]
  IC50: 0.00025 µg/mL (≈ 0.000364 µM)
[13]; [22]
  IC50: 0.00011 µg/mL (≈ 0.00016 µM)
[13]; no washout IC50
  fold more potent than POS at inhibiting hyphal growth: 4.1 fold
  fold more potent than VRC at inhibiting hyphal growth: 100 fold
[14]
  MIC: 0.25 µg/mL (≈ 0.364 µM)
[15]
  MIC: 1 µg/mL (≈ 1.46 µM)
[16]
  MIC: 2 µg/mL (≈ 2.91 µM)
A. fumigatus (NCPF2010) [17]
  fold more potent than POS (XTT-MFC): 3 fold
  fold more potent than VRC (XTT-MFC): > 229 fold
  XTT-MFC/MIC ratio: 2.2
  XTT-MFC: 0.14 ± 0.0058 µg/mL
A. fumigatus (NCPF2010) [17]; Aspergillus fumigatus
  MFC: 0.14 µg/mL (≈ 0.204 µM)
A. fumigatus (NCPF2010) [17]; [23]
  inhibition at 1 µg/mL: 99.9%

## CC[C@@H]([C@H](C)O)n1ncn(-c2ccc(N3CCN(c4ccc(OC[C@@H]5CO[C@@](Cn6cncn6)(c6ccc(F)cc6F)C5)cc4)CC3)cc2)c1=O [Posaconazole, posaconazole]
[1]
  MIC: 0.016 µg/mL (≈ 0.0228 µM)
[2]
  MIC Range: 0.016 to 2 µg/mL
  MIC50: 0.063 µg/mL (≈ 0.0899 µM)
  MIC90: 0.5 µg/mL (≈ 0.713 µM)
[2]; read-out: MIC Geometric mean
  MIC: 0.1 µg/mL (≈ 0.143 µM)
[2]; read-out: MIC Mode
  MIC: 0.032 µg/mL (≈ 0.0457 µM)
A. fumigatus AF293
  IC50: 0.01 µg/mL (≈ 0.0143 µM)
  IC90: 0.028 µg/mL (≈ 0.04 µM)
A. fumigatus AF72
  IC50: 0.042 µg/mL (≈ 0.0599 µM)
  IC90: 0.3 µg/mL (≈ 0.428 µM)
A. fumigatus NCPF2010
  IC50: 0.007 µg/mL (≈ 0.00999 µM)
  IC90: 0.0084 µg/mL (≈ 0.012 µM)
A. fumigatus AF294
  IC50: 0.0056 µg/mL (≈ 0.00799 µM)
  IC90: 0.011 µg/mL (≈ 0.0157 µM)
A. fumigatus AF91
  IC50: 0.038 µg/mL (≈ 0.0542 µM)
  IC90: 0.049 µg/mL (≈ 0.0699 µM)
[3]
  MIC: 0.031 µg/mL (≈ 0.0442 µM)
[4]
  MIC: 0.16 µg/mL (≈ 0.228 µM)
[5]; [18]
  IC50: 0.012 µg/mL and 17 nM
[6]
  MIC: 0.093 µg/mL (≈ 0.133 µM)
[7]
  MIC: 0.25 µg/mL (≈ 0.357 µM)
[8]
  MIC: 0.5 µg/mL (≈ 0.713 µM)
[9]
  MIC: 1 µg/mL (≈ 1.43 µM)
A. fumigatus (NCPF2010) [10]
  MFC: 4 µg/mL (≈ 5.71 µM)
  CFU-MFC/MIC ratio: 32
[11]
  MIC: 0.13 µg/mL (≈ 0.186 µM)
[12]; [19]
  IC50: 0.0031 µg/mL (≈ 0.00442 µM)
[12]; [20]
  IC50: 0.046 µg/mL (≈ 0.0656 µM)
[13]; [21]
  IC50: 0.0022 µg/mL (≈ 0.00314 µM)
[13]; [22]
  IC50: 0.00045 µg/mL (≈ 0.000642 µM)
[14]
  MIC: > 8 µg/mL
[15]
  MIC: > 8 µg/mL
[16]
  MIC: > 8 µg/mL
A. fumigatus (NCPF2010) [17]; Aspergillus fumigatus
  MFC: 0.42 µg/mL (≈ 0.599 µM)
A. fumigatus (NCPF2010) [17]; [23]
  inhibition at 2 µg/mL: 100%
A. fumigatus (NCPF2010) [17]
  XTT-MFC/MIC ratio: 3.4
  XTT-MFC: 0.42 ± 0.020 µg/mL
